Data: patent US12545649B2, “WDR5-MYC inhibitors” (Vanderbilt University, priority 2019, dated 2026)

What follows are compounds tested on MYC (assay: ChIP: disruption of binding of MYC to chromatin). Details: HEK293 cells expressing HA-tagged MYC, 20 μM, 10 h.
Type: cell-based
Description: (§1) HEK293 cells expressing HA-tagged MYC and GFP were plated in growth media. Upon reaching approximately 70% confluence, cells were washed once with PBS then treated for 10 h with 20 μM compound in OptiMEM media. Cells were cross linked at room temperature in PBS containing 1% Formaldehyde for 10 minutes, then cells were scraped into 1.5 mL PBS supplemented with 125 mM Glycine. Cells were collected by centrifugation, washed once with PBS+125 mM Glycine, and pellets stored frozen. Chromatin was prepared by lysing cells at 80×10^6 per mL in ChIP Lysis Buffer (50 mM Tris pH 8.0, 140 mM NaCl, 1 mM EDTA, 1% Triton, 1% SDS and supplemented with protease inhibitor cocktail), Samples were sonicated (BioRuptor) for 30 minutes and cleared by centrifugation. Precipitation was performed essentially as described [Thomas L R 2015 Mol Cell] by diluting chromatin 1:9 in ChIP buffer without SDS. Decrosslinked DNA was diluted to 500 μL with water and 7.5 μL was used for each qPCR reaction. Percent input was calculated by comparison to a 30-fold dilution of decrosslinked chromatin. Primers used for ChIP have been described in Thomas, L. R.; Adams, C. M.; Wang, J.; Weissmiller, A. M.; Creighton, J.; Lorey, S. L.; Liu, Q.; Fesik, S. W.; Eischen, C. M.; Tansey, W. P. Interaction of the Oncoprotein Transcription Factor MYC with its Chromatin Cofactor WDR5 is Essential for Tumor Maintenance. […]
With `CS(=O)(=O)c1nc(NS(=O)(=O)c2cc(Br)cc(Cl)c2O)cn1C1CCCC1` [Example 26, 5-Bromo-3-chloro-N-(1-cyclopentyl-2-(methylsulfonyl)-1H-imidazol-4-yl)-2-hydroxybenzenesulfonamide] the “amount of MYC at ZFPM1 and ZMF771 (MYC binding independent of WDR5)” value was “nearly unaffected” and the “amount of MYC at loci where MYC recruitment is dependent on WDR5 (C7orf40, RNPS1, RPS14, and RPL5)” value was “reduction”.

The compounds below were run against T1, WDR5 (Homo sapiens, UniProt P61964) (assay: ChIP for WDR5 binding to chromatin). Details: HEK293 cells, 20 μM, 10 h.
Type: cell-based
Description: as §1
`CS(=O)(=O)c1nc(NS(=O)(=O)c2cc(Br)cc(Cl)c2O)cn1C1CCCC1` [Example 26, 5-Bromo-3-chloro-N-(1-cyclopentyl-2-(methylsulfonyl)-1H-imidazol-4-yl)-2-hydroxybenzenesulfonamide] was tested, and the “WDR5 levels at these loci (ChIP for WDR5) versus negative control compound” value was “comparable levels”.

What follows are compounds tested against T1, WDR5 (assay: Competition-based fluorescence polarization anisotropy (FPA) assay). Details: FITC small molecule probe.
Type: binding
Description: (Thomas, […], et al, Molecular Cell 2015 (58): 440-452). Fluorescence polarization measurements were performed in 384-well plates (Greiner Bio One) using a Cytation 3 plate reader (BioTek). […] […] The assay buffer contained 200 mM phosphate, 300 mM NaCl, and 0.5 mM TCEP and 0.1% Chaps at pH 6.0. Compounds were serially diluted in assay buffer at a top concentration sufficient to yield a 9-point dose-response curve.
`O=C(c1nc(NS(=O)(=O)c2cc(Br)cc(Cl)c2O)cn1C1CCCC1)N1CCC(C2CCNC2)CC1` (centres unmarked) [Example 54, 5-Bromo-3-chloro-N-(1-cyclopentyl-2-(4-(pyrrolidin-3-yl)piperidine-1-carbonyl)-1H-imidazol-4-yl)-2-hydroxybenzenesulfonamide] showed a Ki of 990 nM.
`O=S(=O)(Nc1cn(C2CCNC2)cn1)c1cc(Br)cc(Cl)c1O` (centres unmarked) [Example 31, 5-Bromo-3-chloro-2-hydroxy-N-(1-(pyrrolidin-3-yl)-1H-imidazol-4-yl)benzenesulfonamide] was tested, and the Ki was 10300 nM.
With `O=S(=O)(Nc1cc(-c2ccccc2)[nH]n1)c1cc(Br)cc(Cl)c1O` [Example 35, 5-Bromo-3-chloro-2-hydroxy-N-(5-phenyl-1H-pyrazol-3-yl)benzenesulfonamide] the Ki was 1100 nM.
`O=S(=O)(Nc1cn(C(C2CC2)C2CC2)cn1)c1cc(Br)cc(Cl)c1O` [Example 18, 5-Bromo-3-chloro-N-(1-(dicyclopropylmethyl)-1-imidazol-4-yl)-2-hydroxybenzenesulfonamide] was tested, and the Ki was 970 nM.
`O=S(=O)(Nc1cn(C2CCCC2)cn1)c1cc(Br)cc(Cl)c1O` [Example 1, 5-Bromo-3-chloro-N-(1-cyclopentyl-1H-imidazol-4-yl)-2-hydroxybenzenesulfonamide] gave a Ki of 160 nM.
Work on `O=S(=O)(Nc1nc2ccc(OC(F)(F)F)cc2s1)c1cc(Br)cc(Cl)c1O` [Example 40, 5-Bromo-3-chloro-2-hydroxy-N-(6-(trifluoromethoxy)benzo[d]thiazol-2-yl)benzenesulfonamide] yielded a Ki of 3900 nM.
`Cc1nc(NS(=O)(=O)c2cc(Br)cc(Cl)c2O)cn1C1CCC1` [Example 17, 5-Bromo-3-chloro-N-(1-cyclobutyl-2-methyl-1-imidazol-4-yl)-2-hydroxybenzenesulfonamide] gave a Ki of 660 nM.
With `O=S(=O)(Nc1cn(CC2CCCO2)cn1)c1cc(Br)cc(Cl)c1O` (centres unmarked) [Example 15, 5-Bromo-3-chloro-2-hydroxy-N-(1-((tetrahydrofuran-2-yl)methyl)-1H-imidazol-4-yl)benzenesulfonamide] the Ki was 4030 nM.
Work on `O=S(=O)(Nc1nc2ccccc2s1)c1cc(Br)cc(Cl)c1O` [Example 37, N-(Benzo[d]thiazol-2-yl)-5-bromo-3-chloro-2-hydroxybenzenesulfonamide] yielded a Ki of 120 nM.
In the case of `O=S(=O)(Nc1cn(CC2CCCO2)cn1)c1cc(Br)ccc1O` (centres unmarked) [Example 16, 5-Bromo-2-hydroxy-N-(1-((tetrahydrofuran-2-yl)methyl)-1H-imidazol-4-yl)benzenesulfonamide], the Ki is reported as 19200 nM.
In the case of `O=S(=O)(Nc1cn(CC2CC2)cn1)c1cc(Br)cc(Cl)c1O` [Example 5, 5-Bromo-3-chloro-N-(1-(cyclopropylmethyl)-1H-imidazol-4-yl)-2-hydroxybenzenesulfonamide], the Ki is reported as 820 nM.
